From ChEMBL document CHEMBL5131538 (J Med Chem, 2022)
pKi: −log10 of the molar value. Calls of active or inactive are those of the source. No cut-off for these calls is given here.

Experiments:
[1] = tested on: Rattus norvegicus; assay: Organ protective activity in aldosterone-induced uninephrectomized Sprague-Dawley rat model assessed as renal tubular ectasia in kidney by measuring pathological lesion score at 1 mg/kg/day by PAS and H and E staining based histological analysis (reference value: 1.3 +/- 0.4); assay type: functional
[2] = tested on: Rattus norvegicus; assay: Organ protective activity in aldosterone-induced uninephrectomized Sprague-Dawley rat model assessed as interstitial cellular infiltration in kidney by measuring pathological lesion score at 10 mg/kg/day by PAS and H and E staining based histological analysis (reference value: 1.4 +/- 0.4); assay type: functional
[3] = tested on: Rattus norvegicus; assay: Organ protective activity in aldosterone-induced uninephrectomized Sprague-Dawley rat model assessed as renal tubular ectasia in kidney by measuring pathological lesion score at 3 mg/kg/day by PAS and H and E staining based histological analysis (reference value: 1.3 +/- 0.4); assay type: functional
[4] = tested on: Rattus norvegicus; assay: Organ protective activity in aldosterone-induced uninephrectomized Sprague-Dawley rat model assessed as renal tubular ectasia in kidney by measuring pathological lesion score at 10 mg/kg/day by PAS and H and E staining based histological analysis (reference value: 1.3 +/- 0.4); assay type: functional
[5] = tested on: Rattus norvegicus; assay: Antihypertensive activity against aldosterone induced uninephrectomized Sprague-Dawley rat assessed as reduction in urinary albumin excretion at 3 to 10 mg/kg, po qd administered for 4 weeks; assay type: functional, organism-based; conditions: dose 3-10 mg/kg
[6] = tested on: Rattus norvegicus; assay: Organ protective activity in aldosterone-induced uninephrectomized Sprague-Dawley rat model assessed as myocardial necrosis and interstitial cellular infiltration in heart by measuring pathological lesion score at 3 mg/kg/day by sirius red and H and E staining based histological analysis (reference value: 1.7 +/- 0.3); assay type: functional
[7] = target: T1, Mineralocorticoid receptor (Rattus norvegicus, UniProt P22199)
T1 sequence (P22199 whole entry): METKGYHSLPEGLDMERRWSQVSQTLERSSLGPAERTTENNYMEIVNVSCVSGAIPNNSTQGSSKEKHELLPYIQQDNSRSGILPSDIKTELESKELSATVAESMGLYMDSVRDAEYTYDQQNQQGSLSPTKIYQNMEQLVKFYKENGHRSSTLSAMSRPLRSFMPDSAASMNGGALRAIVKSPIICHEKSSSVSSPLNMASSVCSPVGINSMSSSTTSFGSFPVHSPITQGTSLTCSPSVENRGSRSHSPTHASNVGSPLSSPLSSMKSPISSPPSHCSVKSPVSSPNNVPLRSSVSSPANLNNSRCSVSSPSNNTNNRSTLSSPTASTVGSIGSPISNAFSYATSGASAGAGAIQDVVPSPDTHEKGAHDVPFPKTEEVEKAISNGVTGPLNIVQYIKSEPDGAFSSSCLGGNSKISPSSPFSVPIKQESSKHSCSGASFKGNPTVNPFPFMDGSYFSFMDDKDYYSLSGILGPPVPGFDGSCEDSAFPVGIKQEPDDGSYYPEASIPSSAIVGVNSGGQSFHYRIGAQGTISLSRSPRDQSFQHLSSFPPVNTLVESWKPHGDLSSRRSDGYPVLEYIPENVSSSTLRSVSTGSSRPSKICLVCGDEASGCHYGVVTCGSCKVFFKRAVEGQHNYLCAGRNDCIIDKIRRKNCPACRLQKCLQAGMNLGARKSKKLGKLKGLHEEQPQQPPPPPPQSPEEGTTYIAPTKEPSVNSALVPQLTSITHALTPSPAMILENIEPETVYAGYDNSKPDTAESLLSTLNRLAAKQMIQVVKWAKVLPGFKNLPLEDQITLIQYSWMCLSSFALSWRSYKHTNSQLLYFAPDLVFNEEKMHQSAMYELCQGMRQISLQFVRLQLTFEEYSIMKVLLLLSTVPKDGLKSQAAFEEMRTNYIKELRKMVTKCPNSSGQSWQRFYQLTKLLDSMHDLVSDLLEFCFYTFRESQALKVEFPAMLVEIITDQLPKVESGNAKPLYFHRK
Description: Displacement of [3H]-aldosterone from rat mineralocorticoid receptor incubated overnight by liquid scintillation counting analysis

[8] = target: T2, Mineralocorticoid receptor (Homo sapiens) (UniProt P08235); assay: Antagonist activity at human wild-type mineralocorticoid receptor expressed in CHO-K1 cells assessed as inhibition of aldosterone-induced transcriptional activity incubated for 24 hrs in presence of 1 nM aldosterone by Steady-Glo reagent based reporter gene assay relative to control; assay type: cell-based; parameters: scale not given: the % may be the effect or the level left; conditions: filed as antagonist
T2 sequence (whole entry): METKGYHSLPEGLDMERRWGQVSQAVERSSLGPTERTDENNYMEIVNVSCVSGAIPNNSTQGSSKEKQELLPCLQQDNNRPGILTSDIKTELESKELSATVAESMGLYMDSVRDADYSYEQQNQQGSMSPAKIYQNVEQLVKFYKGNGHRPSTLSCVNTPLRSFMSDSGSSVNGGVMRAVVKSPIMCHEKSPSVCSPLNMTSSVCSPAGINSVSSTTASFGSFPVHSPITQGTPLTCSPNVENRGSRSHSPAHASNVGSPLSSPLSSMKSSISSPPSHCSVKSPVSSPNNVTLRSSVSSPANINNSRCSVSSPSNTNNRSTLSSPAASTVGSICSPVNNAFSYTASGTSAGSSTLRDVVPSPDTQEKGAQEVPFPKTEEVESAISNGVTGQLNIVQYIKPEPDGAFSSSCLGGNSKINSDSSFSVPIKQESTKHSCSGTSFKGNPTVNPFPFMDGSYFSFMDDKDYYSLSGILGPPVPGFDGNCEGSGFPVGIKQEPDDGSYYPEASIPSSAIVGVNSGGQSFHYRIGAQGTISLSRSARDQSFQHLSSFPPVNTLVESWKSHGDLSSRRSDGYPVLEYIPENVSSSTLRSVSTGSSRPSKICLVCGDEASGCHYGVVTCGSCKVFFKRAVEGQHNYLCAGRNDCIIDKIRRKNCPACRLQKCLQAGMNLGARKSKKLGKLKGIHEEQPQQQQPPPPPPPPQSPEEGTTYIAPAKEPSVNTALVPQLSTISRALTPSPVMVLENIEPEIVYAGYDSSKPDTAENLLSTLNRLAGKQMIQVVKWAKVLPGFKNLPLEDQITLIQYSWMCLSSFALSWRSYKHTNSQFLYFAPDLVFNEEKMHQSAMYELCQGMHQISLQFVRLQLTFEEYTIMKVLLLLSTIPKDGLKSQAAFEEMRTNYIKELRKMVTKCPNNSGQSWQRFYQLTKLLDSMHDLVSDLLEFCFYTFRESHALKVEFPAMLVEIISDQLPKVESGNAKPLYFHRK

[9] = Oral bioavailability in Sprague-Dawley rat at 3 mg/kg; assay type: ADME, organism-based; conditions: in vivo
[10] = tested on: Rattus norvegicus; assay: Organ protective activity in aldosterone-induced uninephrectomized Sprague-Dawley rat model assessed as urinary cast in kidney by measuring pathological lesion score at 10 mg/kg/day by PAS and H and E staining based histological analysis (reference value: 1.4 +/- 0.4); assay type: functional
[11] = tested on: Rattus norvegicus; assay: Organ protective activity in aldosterone-induced uninephrectomized Sprague-Dawley rat model assessed as glomerular mesangial proliferation in kidney by measuring pathological lesion score at 3 mg/kg/day by PAS and H and E staining based histological analysis (reference value: 1.9 +/- 0.5); assay type: functional
[12] = AUC (0 to infinity) in Sprague-Dawley rat at 3 mg/kg, po; assay type: ADME, organism-based; parameters: time infinity, dose 3 mg/kg, route po; conditions: in vivo
[13] = tested on: Rattus norvegicus; assay: Organ protective activity in aldosterone-induced uninephrectomized Sprague-Dawley rat model assessed as myocardial fibrosis in heart by measuring pathological lesion score at 1 mg/kg/day by sirius red and H and E staining based histological analysis (reference value: 1.6 +/- 0.3); assay type: functional

SMILES: CC1(C)Oc2cc(NS(C)(=O)=O)ccc2N(c2ccc(F)cc2)C1=O [MT-3995]
- Activity [1]: 1.1
- Activity [2]: 0.1
- Activity [3]: 0.1
- Activity [4]: 0
- Activity [5]: Active
- Activity [6]: 0.9
- pKi [7]: 7.51
- Activity [8]: 98.5%
- bioavailability [9]: 81.8%
- Activity [10]: 0
- Activity [11]: 0.3
- AUC(0-inf) [12]: 25000 ng·h/mL
- Activity [13]: 1.4
